Data on 26 molecules can be found in patent US8222247B2, “Modulators of glucocorticoid receptor, AP-1, and/or NF-kappabeta activity and use thereof” (Bristol-Myers Squibb Company, priority 2006, dated 2012).

The target of the assay is T1, human glucocorticoid receptor (Homo sapiens, UniProt P04150).
T1 construct: purified human recombinant full-length glucocorticoid receptor (2 nM); purchased Invitrogen Part #2893
T1 sequence (P04150 1-777): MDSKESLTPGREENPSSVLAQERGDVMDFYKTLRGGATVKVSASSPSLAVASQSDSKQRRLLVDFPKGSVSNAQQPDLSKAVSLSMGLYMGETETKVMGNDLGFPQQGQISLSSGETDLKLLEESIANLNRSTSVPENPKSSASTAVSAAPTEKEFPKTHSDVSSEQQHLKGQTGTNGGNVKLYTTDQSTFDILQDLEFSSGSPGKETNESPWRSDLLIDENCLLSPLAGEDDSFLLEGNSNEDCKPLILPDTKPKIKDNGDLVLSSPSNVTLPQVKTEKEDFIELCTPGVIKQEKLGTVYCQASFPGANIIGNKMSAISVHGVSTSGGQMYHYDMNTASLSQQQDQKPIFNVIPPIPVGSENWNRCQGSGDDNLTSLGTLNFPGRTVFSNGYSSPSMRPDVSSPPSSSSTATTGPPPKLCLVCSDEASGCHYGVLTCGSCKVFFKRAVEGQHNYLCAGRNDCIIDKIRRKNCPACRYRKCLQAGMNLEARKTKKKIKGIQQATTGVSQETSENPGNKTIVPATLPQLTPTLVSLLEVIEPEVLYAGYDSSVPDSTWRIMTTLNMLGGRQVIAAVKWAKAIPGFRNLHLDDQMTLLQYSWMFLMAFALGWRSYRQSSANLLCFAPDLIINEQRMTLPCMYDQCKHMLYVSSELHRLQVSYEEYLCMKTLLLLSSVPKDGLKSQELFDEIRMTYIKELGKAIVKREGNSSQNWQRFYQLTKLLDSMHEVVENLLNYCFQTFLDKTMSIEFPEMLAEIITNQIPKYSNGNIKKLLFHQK
The experiment in a line: Glucocorticoid Receptor Binding Assay (I), fluorescence polarization competitor kit. Conditions: purified human recombinant full-length GR, Fluormone GS Red. The method, then: Glucocorticoid Receptor Binding Assay (I)^a
In order to assess the affinity of test compounds for the human glucocorticoid receptor, a commercially available kit was used (Glucocorticoid Receptor Competitor Assay Kit, Invitrogen Part #2893). Briefly, purified human recombinant full-length glucocorticoid receptor (2 nM) was mixed with fluorescently labeled glucocorticoid (1 nM Fluormone GS Red) in the presence or absence of test compound. After two hour incubation at room temperature in the dark, the fluorescence polarization (FP) of the samples was measured. The FP of a mixture of receptor, fluorescent probe (i.e. Fluormone GS Red) and 5 μM dexamethasone represented background fluorescence or 100% inhibition, whereas, the FP of the mixture without dexamethasone (but in the presence of vehicle) was taken to be 100% binding. The percentage inhibition of test compounds were then compared to the sample with 5 μM dexamethasone and expressed as % relative binding activity with dexamethasone being 100% and no inhibition is 0%. Test compounds were analyzed in the concentration range from 8.5E-05 μM to 5 μM.
A general note: Fluorescence polarisation rises when a labelled molecule tumbles more slowly, as on binding a larger partner.
For the molecule `CC(C(=O)Nc1nncs1)C(c1ccccc1)c1ccc(Br)s1` (single isomer, unassigned) [Example 135, 3-(5-bromo-2-thienyl)-2-methyl-3-phenyl-N-1,3,4-thiadiazol-2-ylpropanamide], the Ki (commonly the equilibrium dissociation constant of an inhibitor or competing ligand from its target) stood at 1.25 nM. For `CC(C(=O)Nc1nncs1)C(c1ccccc1)c1ccc(-c2ccc(C(=O)N(C)C)cc2)s1` (single isomer, unassigned) [Example 138, N,N-dimethyl-4-(5-(2-methyl-3-oxo-1-phenyl-3-(1,3,4-thiadiazol-2-ylamino)propyl)-2-thienyl)benzamide] the value was 360 nM; for `CC(C(=O)Nc1nncs1)C(c1ccccc1)c1ccc(-c2ccc(C(=O)N(C)C)cc2)s1` (single isomer, unassigned) [Example 139, N,N-dimethyl-4-(5-(2-methyl-3-oxo-1-phenyl-3-(1,3,4-thiadiazol-2-ylamino)propyl)-2-thienyl)benzamide], 259 nM.

As to `C[C@@H](C(=O)Nc1nncs1)[C@H](c1ccccc1)c1ccc(-c2ccc(C(=O)N3CCOCC3)cc2)s1` (stereo in doubt) [Example 152, (2R,3R)-2-methyl-3-(5-(4-(4-morpholinylcarbonyl)phenyl)-2-thienyl)-3-phenyl-N-1,3,4-thiadiazol-2-ylpropanamide], the Ki came to 4.85 nM. In the case of `CCN(C)C(=O)c1ccc(-c2ccc([C@@H](c3ccccc3)[C@@H](C)C(=O)Nc3nncs3)s2)cc1` (stereo in doubt) [Example 154, N-ethyl-N-methyl-4-(5-((1R,2R)-2-methyl-3-oxo-1-phenyl-3-(1,3,4-thiadiazol-2-ylamino)propyl)-2-thienyl)benzamide] it was 2.15 nM; in that of `CC(C)(C(=O)Nc1nncs1)C(c1ccccc1)c1ccc(Br)s1` (centres unmarked) [Example 3, -(5-bromo-2-thienyl)-2,2-dimethyl-3-phenyl-N-1,3,4-thiadiazol-2-ylpropanamide], 3.66 nM; in that of `CC(C)(C(=O)Nc1nccs1)C(c1ccccc1)c1ccc(Br)s1` (centres unmarked) [Example 4, 3-(5-bromo-2-thienyl)-2,2-dimethyl-3-phenyl-N-1,3-thiazol-2-ylpropanamide], 6.97 nM. For the molecule `CC(C)(C(=O)Nc1nncs1)C(c1cc(F)cc(F)c1)c1ccc(Br)s1` (centres unmarked) [Example 19, 3-(5-bromo-2-thienyl)-3-(3,5-difluorophenyl)-2,2-dimethyl-N-1,3,4-thiadiazol-2-ylpropanamide], the Ki was 2.93 nM. With `CC(C)Oc1ccc(-c2ccc(C(c3ccccc3)C(C)(C)C(=O)Nc3nncs3)cn2)cc1F` (centres unmarked) [Example 29, 3-(6-(3-fluoro-4-isopropoxyphenyl)-3-pyridinyl)-2,2-dimethyl-3-phenyl-N-1,3,4-thiadiazol-2-ylpropanamide], the Ki stood at 7.69 nM.

In the case of `COc1ccc(-c2ccc(C(c3cccc(F)c3)C(C)(C)C(=O)Nc3nncs3)s2)cc1` (centres unmarked) [Example 35, 3-(3-fluorophenyl)-3-(5-(4-methoxyphenyl)-2-thienyl)-2,2-dimethyl-N-1,3,4-thiadiazol-2-ylpropanamide], the inhibition constant Ki was 5.75 nM. For `CN(C)C(=O)c1ccc(-c2ccc(C(c3cccc(F)c3)C(C)(C)C(=O)Nc3nncs3)s2)cc1` (centres unmarked) [Example 36, 4-(5-(1-(3-fluorophenyl)-2,2-dimethyl-3-oxo-3-(1,3,4-thiadiazol-2-ylamino)propyl)-2-thienyl)-N,N-dimethylbenzamide] the value was 1.46 nM; for `CC(C)Oc1ccc(-c2ccc(C(c3cccc(F)c3)C(C)(C)C(=O)Nc3nncs3)s2)cc1F` (centres unmarked) [Example 37, 3-(5-(3-fluoro-4-isopropoxyphenyl)-2-thienyl)-3-(3-fluorophenyl)-2,2-dimethyl-N-1,3,4-thiadiazol-2-ylpropanamide], 53.5 nM. In the case of `CN(C)C(=O)c1ccc(-c2ccc(C(c3ccccc3)C(C)(C)C(=O)Nc3nncs3)s2)cc1` (centres unmarked) [Example 44, 4-(5-(2,2-dimethyl-3-oxo-1-phenyl-3-(1,3,4-thiadiazol-2-ylamino)propyl)-2-thienyl)-N,N-dimethylbenzamide], the Ki came out at 0.89 nM. For `CC(C)(C(=O)Nc1nncs1)C(c1ccccc1)c1ccc(-c2ccc(C(=O)N3CCCCC3)cc2)s1` (centres unmarked) [Example 46, 2,2-dimethyl-3-phenyl-3-(5-(4-(1-piperidinylcarbonyl)phenyl)-2-thienyl)-N-1,3,4-thiadiazol-2-ylpropanamide], the Ki was 11.7 nM.

For the molecule `CCN(CC)C(=O)c1ccc(-c2ccc(C(c3ccccc3)C(C)(C)C(=O)Nc3nncs3)s2)cc1Cl` (centres unmarked) [Example 48, 2-chloro-4-(5-(2,2-dimethyl-3-oxo-1-phenyl-3-(1,3,4-thiadiazol-2-ylamino)propyl)-2-thienyl)-N,N-diethylbenzamide], the Ki was 17.4 nM. Regarding `CCN(CC)C(=O)c1ccc(-c2ccc(C(c3ccccc3)C(C)(C)C(=O)Nc3nncs3)s2)cc1` (centres unmarked) [Example 49, 4-(5-(2,2-dimethyl-3-oxo-1-phenyl-3-(1,3,4-thiadiazol-2-ylamino)propyl)-2-thienyl)-N,N-diethylbenzamide], the Ki stood at 3.58 nM. In the case of `CCCN(CCC)C(=O)c1ccc(-c2ccc(C(c3ccccc3)C(C)(C)C(=O)Nc3nncs3)s2)cc1` (centres unmarked) [Example 51, 4-(5-(2,2-dimethyl-3-oxo-1-phenyl-3-(1,3,4-thiadiazol-2-ylamino)propyl)-2-thienyl)-N,N-dipropylbenzamide] it was 79.7 nM; in that of `COC(=O)c1ccc(-c2ccc(C(c3ccccc3)C(C)(C)C(=O)Nc3nncs3)s2)cc1F` (centres unmarked) [Example 53, methyl 4-(5-(2,2-dimethyl-3-oxo-1-phenyl-3-(1,3,4-thiadiazol-2-ylamino)propyl)-2-thienyl)-2-fluorobenzoate], 152 nM; in that of `CC(C)(C(=O)Nc1nncs1)C(c1ccccc1)c1ccc(-c2ccc(C(=O)N3CCC(F)(F)CC3)cc2)s1` (centres unmarked) [Example 55, 3-(5-(4-((4,4-Difluoro-1-piperidinyl)carbonyl)phenyl)-2-thienyl)-2,2-dimethyl-3-phenyl-N-1,3,4-thiadiazol-2-ylpropanamide], 36.8 nM. With `CC(C)(C(=O)Nc1nncs1)[C@H](c1cccc(F)c1)c1ccc(Br)s1` [Example 56, (3S)-3-(5-bromo-2-thienyl)-3-(3-fluorophenyl)-2,2-dimethyl-N-1,3,4-thiadiazol-2-ylpropanamide], the Ki came out at 1.21 nM. In the case of `CC(C)(C(=O)Nc1nncs1)[C@@H](c1cccc(F)c1)c1ccc(Br)s1` [Example 57, (3R)-3-(5-bromo-2-thienyl)-3-(3-fluorophenyl)-2,2-dimethyl-N-1,3,4-thiadiazol-2-ylpropanamide] it was 2.39 nM; in that of `CN(C)C(=O)c1ccc(-c2ccc([C@@H](c3cccc(F)c3)C(C)(C)C(=O)Nc3nncs3)s2)cc1` [Example 58, 4-(5-((1S)-1-(3-fluorophenyl)-2,2-dimethyl-3-oxo-3-(1,3,4-thiadiazol-2-ylamino)propyl)-2-thienyl)-N,N-dimethylbenzamide], 29.2 nM; in that of `CC(C)(C(=O)Nc1nncs1)[C@H](c1cccc(F)c1)c1ccc(-c2ccc(C(=O)N3CCOCC3)cc2)s1` [Example 59, (3S)-3-(3-fluorophenyl)-2,2-dimethyl-3-(5-(4-(4-morpholinylcarbonyl)phenyl)-2-thienyl)-N-1,3,4-thiadiazol-2-ylpropanamide], 66.9 nM. Regarding `CN(C)C(=O)c1ccc(-c2ccc([C@@H](c3cccc(F)c3)C(C)(C)C(=O)Nc3nncs3)s2)cc1Cl` [Example 60, 2-chloro-4-(5-((1S)-1-(3-fluorophenyl)-2,2-dimethyl-3-oxo-3-(1,3,4-thiadiazol-2-ylamino)propyl)-2-thienyl)-N,N-dimethylbenzamide], the inhibition constant Ki was found to be 161 nM. As for `CC(C)(C(=O)Nc1nncs1)[C@H](c1cccc(F)c1)c1ccc(-c2ccc(C(=O)N3CCOCC3)c(Cl)c2)s1` [Example 61, (3S)-3-(5-(3-chloro-4-(4-morpholinylcarbonyl)phenyl)-2-thienyl)-3-(3-fluorophenyl)-2,2-dimethyl-N-1,3,4-thiadiazol-2-ylpropanamide], the Ki worked out at 101 nM.

Turning to `CCN(C)C(=O)c1ccc(-c2ccc([C@@H](c3cccc(F)c3)C(C)(C)C(=O)Nc3nncs3)s2)cc1` [Example 62, N-ethyl-4-(5-((1S)-1-(3-fluorophenyl)-2,2-dimethyl-3-oxo-3-(1,3,4-thiadiazol-2-ylamino)propyl)-2-thienyl)-N-methylbenzamide], the Ki turned out to be 87.6 nM.
